Results taken from patent publication US8476289B2, “Aza-bicyclohexyl substituted indolyl alkyl amino derivatives as novel inhibitors of histone deacetylace” (Janssen Pharmaceutica NV, priority 2008, dated 2013).
Structures can show the parent of a compound that is named as a salt.

Key:
HCT116 cells = assay: Antiproliferative activity on HCT116 cells (Alamar Blue assay, example C.2); assay type: cell-based; conditions: HCT-116, 96 h, Human colon carcinoma HCT116 cells, 4-day incubation, read-out: Cellular activity pIC50 C.2 (converted)
Protocol: Cellular activity of the compounds of formula (I) was determined on HCT116 tumour cells using a colorimetric assay for cell toxicity or survival (Mosmann Tim, Journal of Immunological Methods 65: 55-63, 1983) (see example C.2).
Human colon carcinoma HCT116 cells obtained from the ATCC were cultured in McCoy's 5A medium supplemented with 2 mM L-Glutamine, 50 μg/ml gentamicin and 10% heat inactivated fetal calf serum.
Reagents Used in the Alamar Blue Assay
Resazurin was purchased from Aldrich (Prod. No. 199303). Potassium ferrocyanide, potassium ferricyanide, KH2PO4 and K2HPO4 were purchased from Sigma (Prod. Nos. P9387, P8131, P5655 and P8281, respectively).
Potassium Phosphate Buffer 0.1 M (PPB) was made as follows: 2.72 gram KH2PO4 and 13.86 gram K2HPO4 were dissolved in 500 ml milli-Q H2O, the pH was adjusted to pH 7.4 and the volume was brought to 1 liter with milli-Q H2O; the buffer was filter sterilised and stored at room temperature. Resazurin stock solution (PPB-A) was prepared fresh by dissolving 45 mg resazurin in 15 ml PBS. 30 mM potassium ferricyanide (PPB-B) was prepared by dissolving 0.987 gram potassium ferricyanide in 100 ml PPB. 30 mM potassium ferrocyanide (PPB-C) was prepared by dissolving 1.266 gram potassium ferrocyanide in 100 ml PPB.
Mixture of PPB-A, PPB-B and PPB-C was prepared by mixing equal volumes of the respective solutions. Resazurin work solution (herein termed “Alamar Blue” solution) was prepared by diluting said mixture 20× (vol/vol) in PPB and filter sterilising; the Alamar Blue solution could be kept at 4° C. for a maximum of 2 weeks.
Procedure of the Alamar Blue Assay
For experiments in 384 wells plates the cells were seeded at a density of 4.5×10^3 cells/ml in Falcon 384-well culture plates (Life Technologies, Merelbeke, Belgium), black with clear bottom, in 45 μl culture medium. Cells were allowed to adhere to plastic for 24 hr. The tested compound was pre-diluted (1/50 in culture medium) and 5 μl pre-diluted compound was added to the wells. Following 4-day incubation, 10 μl of the Alamar Blue solution was added to each well and the cells were further incubated for 4 hrs (HCT116) or 24 hrs (PC-3) at 37° C. The fluorescence intensity was measured for each well on a Fluorescence plate reader (Fluorskan, Labsystems, 540 nm excitation and 590 nm emission)
The antiproliferative activity was calculated as percentage of remaining viable cells in treated versus control (untreated cells) conditions. Within an experiment, the result for each experimental condition is the mean of 3 replicate wells. When appropriate, the experiments were repeated to establish full concentration-response curves. When appropriate, IC50-values (concentration of the drug, needed to reduce cell growth to 50% of the control) were computed using probit analysis for graded data (Finney, D. J., Probit Analyses, 2nd Ed. Chapter 10, Graded Responses, Cambridge University Press, Cambridge 1962). Herein the effects of test compounds are expressed as pIC50 (the negative log value of the IC50-value) (see Table F-2).

[1] = target: histone deacetylase (HeLa nuclear extracts); assay: In vitro assay for inhibition of histone deacetylase (example C.1.c, HeLa nuclear extracts); assay type: biochemical; conditions: HeLa nuclear extract, 45 min at 37° C.; work performed by Reaction Biology Corp.
Protocol: The in vitro assay for inhibition of histone deacetylase (see example C.1) measures the inhibition of HDAC enzymatic activity obtained with the compounds of formula (I).
HeLa nuclear extracts (prepared by high salt extraction of HeLa nuclei, J. D. Dignam et al., S. M. Abmayr et al) were incubated with 9 mg/ml in 0.1M KCl, 20 mM HEPES/NaOH, pH 7.9, 20% (v/v) glycerol, 0.2 mM EDTA, 0.5 mM DTT, 0.5 mM PMSF of enzyme. After 45 min, at 37° C. the deacetylation reaction was terminated. The developer reaction (also at 37° C.) was read in a time dependent manner for an hour. For each experiment, controls (containing HeLa nuclear extract and DMSO without compound) and samples (containing compound dissolved in DMSO and HeLa nuclear extract) were run in parallel. The compounds were tested at concentrations between 10^−5M and 10^−12M. The control sample represented 100% of substrate deactylation. For each sample the activity was expressed as a percentage of the mean value of the controls. Appropriate IC50-values (concentration of the drug, needed to reduce the amount of metabolites to 50% of the control) were computed using the Prism program. Herein the effects of test compounds are expressed as pIC50 (the negative log value of the IC50-value) (see Table F-2). Work was performed by Reaction Biology Corp. (Malvern, Pa., USA).

IC50 (HCT116 cells)	melting point	Enzymatic activity pIC50 C.1.c. [1]	Structure (SMILES)
35.5 nM	–	–	CCCn1cc(CNCC2C3CN(c4ncc(C(=O)NO)cn4)CC23)c2cc(Cl)ccc21 (centres unmarked) [Compound 6]
25.7 nM	–	–	CCCn1cc(CNCC2C3CN(c4ncc(C(=O)NO)cn4)CC23)c2cc(F)ccc21 (centres unmarked) [Compound 7]
–	157 °C	–	Cn1cc(CNC2C3CN(c4ncc(C(=O)NO)cn4)CC32)c2ccccc21 (centres unmarked) (as salt: trifluoroacetate) [Compound 2]
–	150 °C	–	Cn1cc(CNCC2C3CN(c4ncc(C(=O)NO)cn4)CC23)c2ccccc21 (centres unmarked) (as salt: trifluoroacetate) [Compound 1]
398 nM	–	–	Cn1cc(CNCC2C3CN(c4ncc(C(=O)NO)cn4)CC23)c2cc(C#N)ccc21 (centres unmarked) [Compound 5]
81.3 nM	–	–	Cn1cc(CNCC2C3CN(c4ncc(C(=O)NO)cn4)CC23)c2cc(F)ccc21 (centres unmarked) [Compound 4]
661 nM	–	8.62	Cn1cc(CNC2C3CN(c4ncc(C(=O)NO)cn4)CC32)c2ccccc21 (centres unmarked) [Compound 2]
89.1 nM	–	8.39	Cn1cc(CNCC2C3CN(c4ncc(C(=O)NO)cn4)CC23)c2ccccc21 (centres unmarked) [Compound 1]
75.9 nM	–	–	Cn1cc(CNCC2C3CN(c4ncc(C(=O)NO)cn4)CC23)c2cc(Cl)ccc21 (centres unmarked) [Compound 3]
